Results as given in patent US9113629B2, “4-amino-6-(4-substituted-phenyl)-picolinates and 6-amino-2-(4-substituted-phenyl)-pyrimidine-4-carboxylates and their use as herbicides” (DOW AGROSCIENCES LLC, priority 2013, dated 2015).
Where two headings read alike, the source gives them in different places.

Columns and labels:
[1] = test system: Key Broadleaf Weed and Crop Species; assay: Post-emergent Test II herbicidal activity (Table 5); type: in vivo; details: post-emergence, 336 h, 14 days after application; for pest or weed control at 70 g/ha: application rate 70 g ai/ha; for pest or weed control at 140 g/ha: application rate 140 g ai/ha
Summary of the method: (§1)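 Injury was rated visually 14 d after treatment on a 0–100% scale against untreated controls. Test compounds, formulated with crop oil concentrate and surfactant and serially diluted down to 1/16× of the top rate, were applied by track sprayer at 187 L/ha onto first- to second-true-leaf seedlings.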

[2] = test system: Key Grass and Sedge Weeds as well as Grass Crops; assay: Post-emergent Test II herbicidal activity (Table 6); type: in vivo; details: post-emergence, 336 h; for pest or weed control at 70 g/ha: 70 g ai/ha; for pest or weed control at 140 g/ha: 140 g ai/ha
Summary of the method: as §1

[3] = ABUTH: velvetleaf (Abutilon theophrasti), read-out: Visual Growth Reduction (%) 14 Days After Application, ABUTH
[4] = AMARE: redroot pigweed (Amaranthus retroflexus), read-out: Visual Growth Reduction (%) 14 Days After Application, AMARE
[5] = BRSNN: oilseed-rape, canola (Brassica napus), read-out: Visual Growth Reduction (%) 14 Days After Application, BRSNN
[6] = CHEAL: lambsquarters (Chenopodium album), read-out: Visual Growth Reduction (%) 14 Days After Application, CHEAL
[7] = HELAN: sunflower (Helianthus annuus), read-out: Visual Growth Reduction (%) 14 Days After Application, HELAN
[8] = VIOTR: wild pansy (Viola tricolor), read-out: Visual Growth Reduction (%) 14 Days After Application, VIOTR
[9] = CYPES: yellow nutsedge (Cyperus esculentus), read-out: Visual Growth Reduction (%) 14 Days After Application, CYPES
[10] = DIGSA: crabgrass (Digitaria sanguinalis), read-out: Visual Growth Reduction (%) 14 Days After Application, DIGSA
[11] = ECHCG: barnyardgrass (Echinochloa crus-galli), read-out: Visual Growth Reduction (%) 14 Days After Application, ECHCG
[12] = ORYSA: rice (Oryza sativa), crop, read-out: Visual Growth Reduction (%) 14 Days After Application, ORYSA
[13] = SETFA: giant foxtail (Setaria faberi), read-out: Visual Growth Reduction (%) 14 Days After Application, SETFA
[14] = SORVU: grain sorghum (Sorghum vulgare), read-out: Visual Growth Reduction (%) 14 Days After Application, SORVU
[15] = TRZSS (wheat, Triticum aestivum), crop, read-out: Visual Growth Reduction (%) 14 Days After Application, TRZSS
[16] = ZEAMX: maize, corn (Zea mays), crop, read-out: Visual Growth Reduction (%) 14 Days After Application, ZEAMX

- melting point: 169 to 170 °C
Compound: COc1c(N)nc(-c2ccc(C(F)(F)F)c(F)c2F)nc1C(=O)O [Compound 76]
- pest or weed control at 70 g/ha [1, 3]: 95 to 100%
- pest or weed control at 140 g/ha [1, 3]: 95 to 100%
- pest or weed control at 70 g/ha [1, 4]: 95 to 100%
- pest or weed control at 140 g/ha [1, 4]: 95 to 100%
- pest or weed control at 70 g/ha [1, 5]: 85 to 94%
- pest or weed control at 140 g/ha [1, 5]: 95 to 100%
- pest or weed control at 70 g/ha [1, 6]: 85 to 94%
- pest or weed control at 140 g/ha [1, 6]: 95 to 100%
- pest or weed control at 70 g/ha ([1]; EPHHL: wild poinsettia (Euphorbia heterophylla), read-out: Visual Growth Reduction (%) 14 Days After Application, EPHHL): 95 to 100%
- pest or weed control at 70 g/ha [1, 7]: 85 to 94%
- pest or weed control at 140 g/ha [1, 7]: 95 to 100%
- pest or weed control at 70 g/ha [1, 8]: 45 to 59%
- pest or weed control at 140 g/ha [1, 8]: 60 to 74%
- pest or weed control at 70 g/ha [2, 9]: 0 to 29%
- pest or weed control at 140 g/ha [2, 9]: 30 to 44%
- pest or weed control at 70 g/ha [2, 10]: 75 to 84%
- pest or weed control at 140 g/ha [2, 10]: 85 to 94%
- pest or weed control at 70 g/ha [2, 11]: 85 to 94%
- pest or weed control at 140 g/ha [2, 11]: 95 to 100%
- pest or weed control at 70 g/ha [2, 12]: 0 to 29%
- pest or weed control at 140 g/ha [2, 12]: 30 to 44%
- pest or weed control at 70 g/ha [2, 13]: 45 to 59%
- pest or weed control at 140 g/ha [2, 13]: 60 to 74%
- pest or weed control at 70 g/ha [2, 14]: 45 to 59%
- pest or weed control at 140 g/ha [2, 14]: 45 to 59%
- pest or weed control at 70 g/ha [2, 15]: 45 to 59%
- pest or weed control at 140 g/ha [2, 15]: 45 to 59%
- pest or weed control at 70 g/ha [2, 16]: 0 to 29%
- pest or weed control at 140 g/ha [2, 16]: 95 to 100%
